Numbers after ± are expanded uncertainties.
Assay: relative permittivity at zero frequency (dimensionless)
Conditions: 298.15 K; 101.33 kPa; Liquid; Coaxial cylinder capacitor

SMILES	relative permittivity at zero frequency
COP(=O)([O-])OC.Cn1cc[n+](C)c1 [1,3-dimethylimidazolium dimethylphosphate]	29.6 ± 3
CCn1cc[n+](C)c1.O=S(=O)([O-])C(F)(F)F [1-ethyl-3-methylimidazolium trifluoromethanesulfonate]	16.5 ± 1
CCCCn1cc[n+](C)c1C.F[P-](F)(F)(F)(F)F [1-butyl-2,3-dimethylimidazolium hexafluorophosphate]	9.4 ± 2
CCCC[N+]1(C)CCCC1.N#CN=C=[N-] [1-butyl-1-methylpyrrolidinium dicyanamide]	18 ± 1.6
CCCCn1cc[n+](C)c1C.O=S(=O)([N-]S(=O)(=O)C(F)(F)F)C(F)(F)F	14 ± 1.6
CC(=O)O.OCCN(CCO)CCO [triethanolammonium acetate]	31 ± 3
CCCCn1cc[n+](C)c1.F[P-](F)(F)(F)(F)F [1-butyl-3-methylimidazolium hexafluorophosphate]	14 ± 1.4
CC(=O)[O-].[NH3+]CCO [2-hydroxyethylammonium acetate]	58.3 ± 5
CC(O)C(=O)O.OCCN(CCO)CCO [triethanolamine lactate]	59.7 ± 6
CCOP(=O)([O-])OCC.CCn1cc[n+](C)c1 [1-ethyl-3-methylimidazolium diethyl phosphate]	16.9 ± 1.6
Cl.Cn1ccnc1 [1-methylimidazolium chloride]	13.8 ± 2
CCCCn1cc[n+](C)c1.O=S(=O)([O-])C(F)(F)F [1-butyl-3-methylimidazolium trifluoromethanesulfonate]	12.9 ± 1
CC(O)C(=O)[O-].[NH3+]CCO (stereo unspecified) [2-hydroxyethylammonium lactate]	85.6 ± 8
Br.Cn1ccnc1 [1-methylimidazolium bromide]	16.6 ± 2.4
CCn1cc[n+](C)c1.O=S(=O)([O-])O [1-ethyl-3-methylimidazolium hydrogen sulfate]	18.4 ± 2
CCCCn1cc[n+](C)c1.N#C[S-] [1-butyl-3-methylimidazolium thiocyanate]	13.7 ± 1.6
CCCCn1cc[n+](C)c1.F[B-](F)(F)F [1-butyl-3-methylimidazolium tetrafluoroborate]	13.9 ± 0.8
CCCCC[N+](CC)(CC)CC.O=S(=O)([N-]S(=O)(=O)C(F)(F)F)C(F)(F)F [triethylpentylammonium bis(trifluoromethylsulfonyl)imide]	12.5 ± 1.4
CCCCn1c(C)c(C)[n+](C)c1C.O=S(=O)([N-]S(=O)(=O)C(F)(F)F)C(F)(F)F	15 ± 1.6
CCn1cc[n+](C)c1C.O=S(=O)([N-]S(=O)(=O)C(F)(F)F)C(F)(F)F	12.8 ± 0.8
CCCC[n+]1c(C)c(C)n(C)c1C.F[B-](F)(F)F	12 ± 1.2
CCCCn1cc[n+](C)c1C.F[B-](F)(F)F [1-butyl-2,3-dimethylimidazolium tetrafluoroborate]	13.3 ± 1.2
C[n+]1ccn(CCO)c1.F[B-](F)(F)F [1-(2-hydroxyethyl)-3-methylimidazolium tetrafluoroborate]	23.3 ± 2
CCOS(=O)(=O)[O-].CCn1cc[n+](C)c1 [1-ethyl-3-methylimidazolium ethyl sulfate]	35 ± 3
CCCCS(=O)(=O)[O-].CCn1cc[n+](C)c1 [1-ethyl-3-methylimidazolium butylsulfonate]	30 ± 3
O=[N+]([O-])[O-].[NH3+]CCO [ethanolammonium nitrate]	60.9 ± 4
